In ChEMBL document CHEMBL1145566, “Synthesis of BC-ring model of globostellatic acid X methyl ester, an anti-angiogenic substance from marine sponge” (Bioorg Med Chem Lett, 2008):
Activity calls are given as the source filed them. No cut-off for these calls is given here.

What was measured:
Format in all cases: functional, cell-based
[1] = test system: HUVEC; assay: Inhibition of VEGF-induced migration in human HUVEC cells
[2] = test system: HUVEC; assay: Inhibition of VEGF-induced tubular formation in human HUVEC cells
[3] = test system: HUVEC; assay: Antiproliferative activity against human HUVEC cells after 72 hrs
[4] = Antiproliferative activity against human KB3-1 cells after 72 hrs; details: KB 3-1, 72 h

Structure (SMILES) | Activity [1] | Activity [2] | IC50 [3] [µM] | IC50 [4] [µM]
COC(=O)[C@]1(C)[C@@H]2CC[C@]3(C)/C(=C(C)/C=C/C=C(C)\C=C\C=C(C)C)C(=O)C[C@H]3[C@@]2(C)CC[C@H]1OC(C)=O (stereo in doubt) | Active | Active | – | –
COC(=O)[C@]1(C)[C@@H]2CC[C@]3(C)\C(=C(C)/C=C/C=C(C)/C=C/C=C(C)C)C(=O)C[C@H]3[C@@]2(C)CC[C@H]1OC(C)=O (stereo in doubt) | Active | Active | 0.09 | 14
CC(C)=C/C=C/C(C)=C/C=C/C(C)=C1/C(=O)C[C@H]2CC(=O)CC[C@]12C | – | – | 2.6 | 17
COC(=O)[C@]1(C)[C@@H]2CC[C@]3(C)/C(=C(C)/C=C/C=C(C)/C=C/C=C(C)C)C(=O)C[C@H]3[C@@]2(C)CC[C@H]1OC(C)=O (stereo in doubt) | Active | Active | – | –
CC(C)=C/C=C/C(C)=C/C=C/C(C)=C1/CC[C@H]2CC3(CC[C@]12C)OCCO3 | – | – | 8.8 | 21
COC(=O)[C@]1(C)[C@@H]2CC[C@]3(C)\C(=C(C)/C=C/C=C(C)\C=C\C=C(C)C)C(=O)C[C@H]3[C@@]2(C)CC[C@H]1OC(C)=O (stereo in doubt) | Active | Active | – | –
CC(C)=C/C=C/C(C)=C/C=C/C(C)=C1/C(=O)C[C@H]2CC3(CC[C@]12C)OCCO3 | – | – | 13 | 20
